Here are results for seven compounds from patent EP4603105A1, “PHARMACEUTICAL COMPOSITION CONTAINING CYCLIC COMPOUND HAVING SELECTIVE KRAS INHIBITORY EFFECT AGAINST HRAS AND NRAS” (CHUGAI SEIYAKU KABUSHIKI KAISHA, priority 2022, dated 2024).

In general, IC50 refers to the concentration that inhibits the measured activity by half. A high value points to lower potency.

*1 amine or outer side, *2 acyl side, *3 side chain or, on linkers, in order; H or OH if unused. Where a SMILES comes first, the peptide text is derived from it. Bridges are numbered along the chain shown (N, C = ends). [ ]: non-standard residue; d: D form. The star is where a group is joined. hPhe(3-Cl-4-CF3) = N[C@@H](CCc1ccc(C(F)(F)F)c(Cl)c1)C(=O)O; X51 = CCCN([C@@H](Cc1ccc(OC(F)(F)F)cc1)C(=O)[*:2])[*:1]; X37 = Cc1ccc(C[C@@H](C(=O)[*:2])N(CCC(C)C)[*:1])cc1; X44 = Cc1ccc(C[C@@H](C(=O)[*:2])N(CC2CCC2)[*:1])cc1; X50 = C=CCN([C@@H](Cc1ccc(C)cc1)C(=O)[*:2])[*:1]; X52 = C#CCN([C@@H](Cc1ccc(C)cc1)C(=O)[*:2])[*:1]; NMeGly(cPent) = CN[C@H](C(=O)O)C1CCCC1; NMeD = CN[C@@H](CC(=O)O)C(=O)O; NMeL = CN[C@@H](CC(C)C)C(=O)O; Morpholide = C1CN(*)CCO1; NMeA = CN[C@@H](C)C(=O)O; Ac5c = NC1(C(=O)O)CCCC1; Aze = O=C(O)[C@@H]1CCN1; Sar = CNCC(=O)O

In one assay the target is GDP-bound NRAS wild-type protein (Homo sapiens, UniProt P01111). The assay can be described thus: Binding to NRAS by surface plasmon resonance (SPR), KD and KD ratio to KRAS. The note with it: ratio of KD for GDP-bound NRAS wild-type protein to KD for KRAS. The protocol: (§1) Surface plasmon resonance was used to analyze the binding affinity of compounds for KRAS, NRAS, and HRAS. The apparatus used was Biacore 8K, 8K+, or T200 (GE Healthcare), and the running buffer used was HBS (10 mM HEPES-NaOH, 150 mM NaCl, pH 7.4) containing 1 mM DTT, 10 mM MgCl2, 0.01% Tween 20, 10 µM GDP, and 4% DMSO.
Chain of GDP-bound NRAS wild-type protein (P01111 whole entry, the tested form may be a part): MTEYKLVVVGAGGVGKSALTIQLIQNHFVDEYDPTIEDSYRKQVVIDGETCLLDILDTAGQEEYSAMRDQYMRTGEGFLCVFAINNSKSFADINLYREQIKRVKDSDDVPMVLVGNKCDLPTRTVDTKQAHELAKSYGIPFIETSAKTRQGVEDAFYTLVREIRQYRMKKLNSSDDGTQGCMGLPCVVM
(§2) Biotinylated Avi-tag fusion KRAS, NRAS, and HRAS proteins were expressed in E. coli BL21 (DE3) strains, and after cells were homogenized, they were purified using Streptavidin Mutein Matrix and Superdex 75. After purification, GDP-loaded KRAS, NRAS, and HRAS proteins were immobilized on the surface of Sensor Chip CAP (Cytiva) coated with Biotin CAPture Reagent in an immobilization amount of about 100 to 300 RU. Binding of each compound was evaluated by the Single Cycle Kinetics method, and a running buffer or a compound solution was added to the RAS protein non-immobilized surface and the immobilized surface to obtain a binding response. The flow rate was set to 100 µL/min, and in the compound-adding cycle, compound solutions having different concentrations were intermittently added for 75 seconds each, starting from a low concentration. […] In the blank cycle, a running buffer was intermittently added and not the compound solution. The Biotin CAPture Reagent and RAS proteins were immobilized for each cycle, and at the end of each cycle, the sensor chip was regenerated by the regeneration solution appended to the Biotin CAPture Kit (Cytiva). Measurement was carried out at 30°C.
(§3) The resulting sensorgram was subjected to curve fitting based on a 1:1 binding model on Biacore Insight Evaluation Software or T200 Evaluation Software, and thereby the dissociation constant KD of each compound with respect to KRAS, NRAS, and HRAS was determined. […] Blank indicates a compound from which the KD value with respect to NRAS or HRAS was not obtained.
Take `CCC[C@H]1C(=O)N[C@@H]([C@@H](C)CC)C(=O)N(C2CC2)CC(=O)N(C)[C@H]2C/C=C\CCN(C2=O)[C@@H](Cc2ccc(C)cc2)C(=O)N(C)CC(=O)N[C@@H](CCc2ccc(C(F)(F)F)c(C3CC3)c2)C(=O)N2C[C@H](OCC)C[C@H]2C(=O)NC2(CC(C)(C)C2)C(=O)N(C)[C@@H](C2CCCC2)C(=O)N(C)[C@H](C(=O)N(C)C)CC(=O)N1C` [PP2881]: the “NRAS /KRAS” value was “A (a compound having 10 or more and less than 20 is denoted as A)”.

Take `CCO[C@@H]1C[C@H]2C(=O)NC3(CC(C)(C)C3)C(=O)N(C)[C@@H](C3CCCC3)C(=O)N(C)[C@H](C(=O)N3CCCCC3)CC(=O)N(C)[C@H]3CCCCc4ccc(cc4)C[C@@H](C(=O)N(C)CC(=O)N[C@@H](CCc4ccc(C(F)(F)F)c(OC)c4)C(=O)N2C1)N1CC/C=C\C[C@@H](C1=O)N(C)C(=O)CN(C)C(=O)[C@H]([C@@H](C)CC)NC3=O` [PP3093]: the “NRAS /KRAS” value is “A (a compound having 10 or more and less than 20 is denoted as A)”.

For a further assay, the system named is human lung cancer strain NCI-H441.
Test: not given
Conditions: not given
Type of assay: cell-based. As to the method: A test compound was dispensed into a U-bottom 384-well plate as 40 nL serially diluted dimethyl sulfoxide solutions using a liquid handler Echo (LABCYTE). […] This cell suspension was dispensed in an amount of 40 µL per well into a plate containing the test compound, and cultured at 37°C in a 5% carbon dioxide gas incubator. Four days later, 20 µL of CellTiter-Glo (registered trademark) (Promega) was added to each well and […] was measured. […]
As to `CC[C@H](C)[C@@H]1NC(=O)[C@H](CC(C)C)N(C)C(=O)C[C@@H](C(=O)N2CCOCC2)N(C)C(=O)[C@H](C2CCCC2)N(C)C(=O)C2(CCCC2)NC(=O)[C@@H]2CCCN2C(=O)[C@H](CCc2ccc(C(F)(F)F)c(Cl)c2)NC(=O)CN(C)C(=O)[C@H](Cc2ccc(C)cc2)N(CC2CCC2)C(=O)[C@@H]2CCN2C(=O)[C@H](C)N(C)C1=O` [PP0083] ([NMeL]I[NMeA][Aze][X44][Sar][hPhe(3-Cl-4-CF3)]P[Ac5c][NMeGly(cPent)][NMeD]-Morpholide; lactam N-11), the half-inhibitory concentration (IC50) came out at 11.3 nM.

Turning to `C=CCN1C(=O)[C@@H]2CCN2C(=O)[C@H](C)N(C)C(=O)[C@H]([C@@H](C)CC)NC(=O)[C@H](CC(C)C)N(C)C(=O)C[C@@H](C(=O)N2CCOCC2)N(C)C(=O)[C@H](C2CCCC2)N(C)C(=O)C2(CCCC2)NC(=O)[C@@H]2CCCN2C(=O)[C@H](CCc2ccc(C(F)(F)F)c(Cl)c2)NC(=O)CN(C)C(=O)[C@@H]1Cc1ccc(C)cc1` [PP0088] ([NMeL]I[NMeA][Aze][X50][Sar][hPhe(3-Cl-4-CF3)]P[Ac5c][NMeGly(cPent)][NMeD]-Morpholide; lactam N-11), the IC50 was found to be 4.1 nM.

`C#CCN1C(=O)[C@@H]2CCN2C(=O)[C@H](C)N(C)C(=O)[C@H]([C@@H](C)CC)NC(=O)[C@H](CC(C)C)N(C)C(=O)C[C@@H](C(=O)N2CCOCC2)N(C)C(=O)[C@H](C2CCCC2)N(C)C(=O)C2(CCCC2)NC(=O)[C@@H]2CCCN2C(=O)[C@H](CCc2ccc(C(F)(F)F)c(Cl)c2)NC(=O)CN(C)C(=O)[C@@H]1Cc1ccc(C)cc1` [PP0090] ([NMeL]I[NMeA][Aze][X52][Sar][hPhe(3-Cl-4-CF3)]P[Ac5c][NMeGly(cPent)][NMeD]-Morpholide; lactam N-11) returned an IC50 of 1.9 nM. Against the preceding compound, the IC50 is about 2.2-fold lower.

The compound `CC[C@H](C)[C@@H]1NC(=O)[C@H](CC(C)C)N(C)C(=O)C[C@@H](C(=O)N2CCOCC2)N(C)C(=O)[C@H](C2CCCC2)N(C)C(=O)C2(CCCC2)NC(=O)[C@@H]2CCCN2C(=O)[C@H](CCc2ccc(C(F)(F)F)c(Cl)c2)NC(=O)CN(C)C(=O)[C@H](Cc2ccc(C)cc2)N(CCC(C)C)C(=O)CN(C)C(=O)CN(C)C1=O` [PP0098] ([NMeL]I[Sar][Sar][X37][Sar][hPhe(3-Cl-4-CF3)]P[Ac5c][NMeGly(cPent)][NMeD]-Morpholide; lactam N-11) registered an IC50 of 9.4 nM.

On to `CCCN1C(=O)[C@@H]2CCN2C(=O)[C@H](C)N(C)C(=O)[C@H]([C@@H](C)CC)NC(=O)[C@H](CC(C)C)N(C)C(=O)C[C@@H](C(=O)N2CCOCC2)N(C)C(=O)[C@H](C2CCCC2)N(C)C(=O)C2(CCCC2)NC(=O)[C@@H]2CCCN2C(=O)[C@H](CCc2ccc(C(F)(F)F)c(Cl)c2)NC(=O)CN(C)C(=O)[C@@H]1Cc1ccc(OC(F)(F)F)cc1` [PP0136] ([NMeL]I[NMeA][Aze][X51][Sar][hPhe(3-Cl-4-CF3)]P[Ac5c][NMeGly(cPent)][NMeD]-Morpholide; lactam N-11), for which the concentration for half-maximal inhibition (IC50) turned out to be 19.6 nM. This IC50 is about 2.1-fold higher than that of the compound before.

The target in the next assay is HRAS wild-type protein (Homo sapiens, UniProt P01112). The assay can be described thus: Binding to HRAS by surface plasmon resonance (SPR), KD and KD ratio to KRAS. Particulars: ratio of KD for HRAS wild-type protein to KD for KRAS. As to the method: as §1, §2, §3
Chain of HRAS wild-type protein (P01112 whole entry): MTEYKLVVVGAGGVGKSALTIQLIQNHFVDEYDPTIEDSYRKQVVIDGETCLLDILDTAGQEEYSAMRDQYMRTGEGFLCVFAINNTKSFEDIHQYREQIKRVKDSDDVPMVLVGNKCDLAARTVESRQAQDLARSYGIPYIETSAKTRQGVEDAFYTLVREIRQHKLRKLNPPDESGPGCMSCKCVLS
Take `CCC[C@H]1C(=O)N[C@@H]([C@@H](C)CC)C(=O)N(C2CC2)CC(=O)N(C)[C@H]2C/C=C\CCN(C2=O)[C@@H](Cc2ccc(C)cc2)C(=O)N(C)CC(=O)N[C@@H](CCc2ccc(C(F)(F)F)c(C3CC3)c2)C(=O)N2C[C@H](OCC)C[C@H]2C(=O)NC2(CC(C)(C)C2)C(=O)N(C)[C@@H](C2CCCC2)C(=O)N(C)[C@H](C(=O)N(C)C)CC(=O)N1C` [PP2881]: the “HRAS /KRAS” value is “A (a compound having 10 or more and less than 20 is denoted as A)”.

On to `CCO[C@@H]1C[C@H]2C(=O)NC3(CC(C)(C)C3)C(=O)N(C)[C@@H](C3CCCC3)C(=O)N(C)[C@H](C(=O)N3CCCCC3)CC(=O)N(C)[C@H]3CCCCc4ccc(cc4)C[C@@H](C(=O)N(C)CC(=O)N[C@@H](CCc4ccc(C(F)(F)F)c(OC)c4)C(=O)N2C1)N1CC/C=C\C[C@@H](C1=O)N(C)C(=O)CN(C)C(=O)[C@H]([C@@H](C)CC)NC3=O` [PP3093], for which the “HRAS /KRAS” value is “A (a compound having 10 or more and less than 20 is denoted as A)”.
